In the NIST ThermoML archive (doi:10.1016/j.jct.2016.12.012):
Several values for one entry are separate records, joined by “and”; a condition that tells them apart may be missing. Identical values can stand only once.

Tests used:
[1] = Molar enthalpy of transition or fusion; settings: DSC
[2] = for Normal melting temperature: DTA

CC(=O)Oc1ccccc1C(C)=O [2'-acetoxyacetophenone]
Crystal
Settings | Molar enthalpy of transition or fusion [kcal/mol] | Normal melting temperature [°C]
[1] | 7.72 | –
[2] | – | 88.7

[2]
Settings | vapor or sublimation pressure
298.01 K, Crystal, Calculated from knudsen effusion weight loss | 6.1e-05 kPa and 6e-05 kPa
299.4 K, Crystal, Calculated from knudsen effusion weight loss | 7.4e-05 kPa
301.22 K, Crystal, Calculated from knudsen effusion weight loss | 9.7e-05 kPa and 9.6e-05 kPa
303.17 K, Crystal, Calculated from knudsen effusion weight loss | 0.000121 kPa and 0.000122 kPa and 0.000124 kPa
305.39 K, Crystal, Calculated from knudsen effusion weight loss | 0.000164 kPa and 0.000166 kPa
307.2 K, Crystal, Calculated from knudsen effusion weight loss | 0.000214 kPa and 0.000217 kPa and 0.000215 kPa
309.14 K, Crystal, Calculated from knudsen effusion weight loss | 0.000275 kPa and 0.000277 kPa
311.34 K, Crystal, Calculated from knudsen effusion weight loss | 0.000362 kPa and 0.000361 kPa and 0.000365 kPa
313 K, Crystal, Closed cell (Static) method | 0.00046 kPa
313.21 K, Crystal, Calculated from knudsen effusion weight loss | 0.000467 kPa and 0.000465 kPa and 0.000469 kPa
315.01 K, Crystal, Closed cell (Static) method | 0.0006 kPa
315.13 K, Crystal, Calculated from knudsen effusion weight loss | 0.00059 kPa and 0.000588 kPa and 0.000593 kPa
316.99 K, Crystal, Closed cell (Static) method | 0.00076 kPa
317.31 K, Crystal, Calculated from knudsen effusion weight loss | 0.000786 kPa and 0.000778 kPa
318.98 K, Crystal, Closed cell (Static) method | 0.00097 kPa
319.28 K, Crystal, Calculated from knudsen effusion weight loss | 0.00102 kPa and 0.001014 kPa and 0.001001 kPa
320.96 K, Crystal, Closed cell (Static) method | 0.00123 kPa
321.27 K, Crystal, Calculated from knudsen effusion weight loss | 0.001305 kPa and 0.001292 kPa and 0.001286 kPa
322.97 K, Crystal, Closed cell (Static) method | 0.00156 kPa
324.96 K, Crystal, Closed cell (Static) method | 0.00199 kPa
326.91 K, Crystal, Closed cell (Static) method | 0.0025 kPa
328.91 K, Crystal, Closed cell (Static) method | 0.00314 kPa
330.92 K, Crystal, Closed cell (Static) method | 0.00397 kPa
332.88 K, Crystal, Closed cell (Static) method | 0.00495 kPa
334.86 K, Crystal, Closed cell (Static) method | 0.00619 kPa
336.81 K, Crystal, Closed cell (Static) method | 0.00762 kPa
338.84 K, Crystal, Closed cell (Static) method | 0.00958 kPa
340.8 K, Crystal, Closed cell (Static) method | 0.01175 kPa
342.74 K, Crystal, Closed cell (Static) method | 0.01458 kPa
344.72 K, Crystal, Closed cell (Static) method | 0.01786 kPa
344.73 K, Metastable liquid, Closed cell (Static) method | 0.03005 kPa
346.7 K, Crystal, Closed cell (Static) method | 0.02195 kPa
346.73 K, Metastable liquid, Closed cell (Static) method | 0.03465 kPa
348.65 K, Metastable liquid, Closed cell (Static) method | 0.03975 kPa
348.68 K, Crystal, Closed cell (Static) method | 0.02665 kPa
350.65 K, Metastable liquid, Closed cell (Static) method | 0.04556 kPa
350.69 K, Crystal, Closed cell (Static) method | 0.0325 kPa
352.61 K, Crystal, Closed cell (Static) method | 0.0395 kPa
352.64 K, Metastable liquid, Closed cell (Static) method | 0.05208 kPa
354.59 K, Metastable liquid, Closed cell (Static) method | 0.05928 kPa
354.61 K, Crystal, Closed cell (Static) method | 0.04802 kPa
356.54 K, Crystal, Closed cell (Static) method | 0.05812 kPa
356.54 K, Metastable liquid, Closed cell (Static) method | 0.06775 kPa
358.51 K, Metastable liquid, Closed cell (Static) method | 0.07683 kPa
360.53 K, Metastable liquid, Closed cell (Static) method | 0.08729 kPa
362.46 K, Metastable liquid, Closed cell (Static) method | 0.0988 kPa
364.45 K, Closed cell (Static) method, Liquid | 0.1124 kPa
366.49 K, Closed cell (Static) method, Liquid | 0.127 kPa
368.43 K, Closed cell (Static) method, Liquid | 0.1443 kPa
370.48 K, Closed cell (Static) method, Liquid | 0.162 kPa
372.37 K, Closed cell (Static) method, Liquid | 0.1819 kPa
374.39 K, Closed cell (Static) method, Liquid | 0.205 kPa
376.34 K, Closed cell (Static) method, Liquid | 0.2324 kPa
378.28 K, Closed cell (Static) method, Liquid | 0.2588 kPa
380.23 K, Closed cell (Static) method, Liquid | 0.2847 kPa
382.24 K, Closed cell (Static) method, Liquid | 0.3195 kPa
384.15 K, Closed cell (Static) method, Liquid | 0.3609 kPa
386.19 K, Closed cell (Static) method, Liquid | 0.3984 kPa
388.15 K, Closed cell (Static) method, Liquid | 0.4446 kPa
390.12 K, Closed cell (Static) method, Liquid | 0.4936 kPa
392.04 K, Closed cell (Static) method, Liquid | 0.5463 kPa
394.07 K, Closed cell (Static) method, Liquid | 0.6059 kPa
395.98 K, Closed cell (Static) method, Liquid | 0.6687 kPa
398 K, Closed cell (Static) method, Liquid | 0.7392 kPa

CC(=O)Oc1cccc(C(C)=O)c1 [3-acetoxyacetophenone]
Settings | Molar enthalpy of transition or fusion, Crystal 1 [kcal/mol] | Molar enthalpy of transition or fusion, Crystal 2 [kcal/mol] | Normal melting temperature, Crystal 1 [°C] | Triple point temperature, Crystal 2, DSC [K]
[1] | 5.54 | 0.239 | – | –
[2] | – | – | 43.1 | 308.1

[2], Crystal 2, Calculated from knudsen effusion weight loss
Settings | vapor or sublimation pressure
297.65 K | 0.000123 kPa and 0.000124 kPa
299.16 K | 0.000153 kPa and 0.000152 kPa
300.09 K | 0.000169 kPa and 0.000167 kPa and 0.000168 kPa
301.23 K | 0.000194 kPa and 0.000196 kPa
302.21 K | 0.00023 kPa
303.25 K | 0.000262 kPa and 0.000259 kPa
304.24 K | 0.000293 kPa and 0.00029 kPa
305.23 K | 0.000337 kPa and 0.00034 kPa and 0.000334 kPa
306.24 K | 0.000387 kPa and 0.000383 kPa and 0.000389 kPa
307.26 K | 0.000436 kPa and 0.000441 kPa and 0.000434 kPa

[2]
Settings | vapor or sublimation pressure [kPa]
305.09 K, Metastable liquid, Closed cell (Static) method | 0.00046
307.07 K, Metastable liquid, Closed cell (Static) method | 0.00055
309.03 K, Metastable liquid, Closed cell (Static) method | 0.00067
311.04 K, Metastable liquid, Closed cell (Static) method | 0.00082
312.98 K, Metastable liquid, Closed cell (Static) method | 0.001
315.01 K, Closed cell (Static) method, Liquid | 0.00122
317.02 K, Closed cell (Static) method, Liquid | 0.00147
319.06 K, Closed cell (Static) method, Liquid | 0.00173
320.99 K, Closed cell (Static) method, Liquid | 0.00206
323.04 K, Closed cell (Static) method, Liquid | 0.00247
324.96 K, Closed cell (Static) method, Liquid | 0.00291
326.99 K, Closed cell (Static) method, Liquid | 0.00346
328.93 K, Closed cell (Static) method, Liquid | 0.0041
330.94 K, Closed cell (Static) method, Liquid | 0.00489
332.92 K, Closed cell (Static) method, Liquid | 0.00565
334.91 K, Closed cell (Static) method, Liquid | 0.00677
336.87 K, Closed cell (Static) method, Liquid | 0.00798
338.84 K, Closed cell (Static) method, Liquid | 0.00935
340.83 K, Closed cell (Static) method, Liquid | 0.01079
342.8 K, Closed cell (Static) method, Liquid | 0.01271
344.79 K, Closed cell (Static) method, Liquid | 0.01475
346.92 K, Closed cell (Static) method, Liquid | 0.01728
348.74 K, Closed cell (Static) method, Liquid | 0.01981
350.69 K, Closed cell (Static) method, Liquid | 0.02301
352.67 K, Closed cell (Static) method, Liquid | 0.02636
354.64 K, Closed cell (Static) method, Liquid | 0.03047
356.61 K, Closed cell (Static) method, Liquid | 0.0348
358.61 K, Closed cell (Static) method, Liquid | 0.03975
360.51 K, Closed cell (Static) method, Liquid | 0.04544
362.54 K, Closed cell (Static) method, Liquid | 0.05195
364.52 K, Closed cell (Static) method, Liquid | 0.05948
366.49 K, Closed cell (Static) method, Liquid | 0.06748
368.46 K, Closed cell (Static) method, Liquid | 0.07663
